# Data from patent US8324151B2, “Treatment of sepsis and septic shock using ghrelin and growth hormone” (The Feinstein Institute for Medical Research, priority 2007, dated 2012).
# Ends that are not written are not given here. * marks the point of attachment. Octanoyl = CCCCCCCC(=O)*
# Columns and labels:
# [1] = system: brain ghrelin receptor; test: Effect of GH on central ghrelin receptor expression and parasympathetic neuronal activity; format: in vivo; conditions: no data given
# [2] = system: 24-month-old (aged) rats with LPS injection; test: LPS-induced endotoxemia in aged rats treated with GH with or without ghrelin; format: in vivo, rat; conditions: 4 h after LPS 15 mg/kg BW, ghrelin 20 nmol/kg BW and/or GH 25 μg/kg BW bolus 30 min prior to LPS
# Experimental: To determine whether GH sensitizes Ghrelin's anti-inflammatory effects, GH was administered (25 μg/kg BW, a bolus at 30 min prior to LPS injection) with or without ghrelin (20 nmol/kg BW, a bolus at 30 min prior to LPS injection) in 24-month-old (aged) rats with LPS injection (15 mg/kg BW). […] Similarly, organ injury indicators such as AST and ALT were attenuated only following co-administration of ghrelin and GH after LPS injection in aged animals (FIG. 9C-D).
# [3] = system: rats exposed to whole body irradiation followed by CLP; test: Radiation combined injury (RCI): 5-Gy whole body irradiation followed by CLP; format: in vivo, rat
# Experimental: Rats were exposed to 5-Gy whole body irradiation followed by cecal ligation and puncture (CLP) 48 h thereafter. Human ghrelin (30 nmol) or vehicle (saline) was infused for 68 h after radiation exposure. At 20 h post-CLP, circulating tissue injury markers were measured. A 10-day survival study was also performed.
# [4] = system: male 3-month-old (young) rats subjected to sepsis by CLP; conditions: sepsis in young animals; Wu et al., 2004; cited from earlier work
# [5] = system: male 3-month-old (young) rats subjected to sepsis by CLP; format: in vivo
# Experimental: Protective effects of ghrelin in young septic animals: This study was designed to determine whether ghrelin by itself can attenuate sepsis-induced inflammatory responses, cardiovascular responses, tissue injury, and mortality in young animals. To study this, male 3-month-old (young) rats were subjected to sepsis by CLP. At 5 h after CLP, a bolus IV injection of ghrelin (6 nmol/kg BW) was followed by a continuous infusion of ghrelin (40 nmol/kg BW) via a primed 200-μl Alzet mini-pump for 15 h. 20 h after CLP (i.e., severe sepsis), plasma levels of TNF-α, IL-6, and HMGB-1 were determined. Cardiac output (CO), stoke volume (SV), total peripheral resistance (TPR), and organ blood flow (BF) were measured using radioactive microspheres. Moreover, tissue injury indicators such as plasma levels of lactate and creatinine, as well as lung water content (edema) were determined. In additional groups of animals, the necrotic cecum was excised at 20 h after CLP, and a 10-day survival was recorded. […] Thus, ghrelin may provide a novel approach for anti-sepsis therapy in the young population. […] This also confirms that ghrelin can cross the blood-brain barrier to produce its beneficial effect centrally, thus reducing proinflammatory cytokines in sepsis. […] Plasma levels of TNF-α were measured at 1 h after LPS injection. […] However, due to the presence of central ghrelin hyporesponsiveness in aged animals, it is most likely that treatment with ghrelin alone will not produce desirable beneficial results in the geriatric population.
# [6] = system: young rats with LPS injection; test: ICV administration of ghrelin prior to IV LPS injection (endotoxemia); conditions: ghrelin 3 nmol/kg BW ICV 30 min prior to IV LPS 15 mg/kg BW; 1 h after LPS
# [7] = 20 h after CLP, ghrelin 6 nmol/kg BW IV bolus at 5 h + 40 nmol/kg BW infusion for 15 h
# [8] = 20 h after CLP, radioactive microspheres
# [9] = plasma, 20 h post-CLP, human ghrelin 30 nmol infused for 68 h after radiation, Mean ± SE, n = 4-6/group
substance,measurement,setting,value
GH: Growth hormone; a ghrelin-sensitizing agent; preferred human forms SEQ ID NO:2-4,brain ghrelin receptor expression,[1]; aged animals (heading of b67),increases
same,parasympathetic neuronal activity,[1],increases
same,plasma levels of IL-6,[2],neither ghrelin nor GH alone significantly decreased
same,plasma levels of TNF-α,[2],neither ghrelin nor GH alone significantly decreased
"Human ghrelin: Human ghrelin; preferably GSSFLSPEHQRVQQRKESKKPPAKLQPR, S at position 3 n-octanoylated serine (SEQ ID NO:1) (GSS(Octanoyl)FLSPEHQRVQQRKESKKPPAKLQPR; listed as Homo sapiens)",survival,"[3]; 10-day survival after RCI, vehicle 38%",69%
same,decrease of the elevated injury markers in plasma,"[3]; vs. RCI + vehicle, 20 h post-CLP",41-59%
"ghrelin: Endogenous ligand for the growth hormone secretagogue receptor; species form used in the LPS and CLP studies not stated (GSSFLSPEHQRVQQRKESKKPPAKLQPR; ends and bridges not checked; UniProt Q9UBU3 24-51, looked up)",circulating proinflammatory cytokines such as TNF-α and IL-6,[4],significantly decreases
same,survival of septic animals,"[5]; 10-day survival, necrotic cecum excised at 20 h after CLP, control 35%, n=20/group",65%
same,lung edema (lung water content),[5]; 20 h after CLP,decreased
same,plasma creatinine,[5]; 20 h after CLP,decreased
same,plasma lactate,[5]; 20 h after CLP,decreased
same,cytokine levels in peritoneal fluid,"[5]; 20 h after CLP, data not shown",markedly reduced
same,plasma levels of HMGB-1,[5]; [7],significantly reduced
same,plasma levels of IL-6,[5]; [7],significantly reduced
same,plasma levels of TNF-α,[5]; [7],significantly reduced
same,cardiac output (CO),[5]; [8],increased
same,organ blood flow in the gut,[5]; [8],increased
same,organ blood flow in the kidneys,[5]; [8],increased
same,organ blood flow in the liver,[5]; [8],increased
same,stroke volume (SV),[5]; [8],increased
same,total peripheral resistance (TPR),[5]; [8],reduced
same,brain ghrelin levels,"[5]; rat, in vivo, iv",restored the reduced brain ghrelin levels
same,Gut MPO,"[3]; 20 h post-CLP, human ghrelin 30 nmol infused for 68 h after radiation, Mean ± SE, n = 4-6/group",14.0 ± 1.1 μU/mg
same,ALT,[3]; [9],42.3 ± 5.4 IU/L
same,AST,[3]; [9],70.7 ± 70.3 IU/L
same,Creatinine,[3]; [9],1.60 ± 0.20 mg/dL
same,IL-6,[3]; [9],817 ± 88 pg/mL
same,LDH,[3]; [9],1098 ± 88 U/L
same,Lactate,[3]; [9],19.4 ± 0.8 mg/dL
same,TNF-α,[3]; [9],41.8 ± 8.5 pg/mL
same,reduction of serum levels of TNF-α,[6],65%
same,plasma levels of IL-6,[2],neither ghrelin nor GH alone significantly decreased
same,plasma levels of TNF-α,[2],neither ghrelin nor GH alone significantly decreased
